{
  "source": "patent US11505521B2",
  "about": "(Biothea Pharma, Inc., priority 2018, dated 2022)",
  "key": {"[1]": {"conditions": "no humidity", "description": "The samples were prepared in a brown glass bottle with the outer packing being an aluminum foil bag, and the samples were stored between layers of dessicant silica gels. The appearance, residual material, purity, TGA, and DSC were analyzed each month."}, "[2]": {"description": "The procedure for the various conditions is set forth below.\nStandard: 20 mg of sample was weighed and dissolved in a 50 mL volumetric flask, diluted to the required volume with diluents, and mixed well.\nAcid Degradation: 20 mg of sample was weighed and placed in a 50 mL volumetric flask. 2 mL of 2.0 mol/L HCl was added to the flask. The flask was placed in a water bath at 40° C. for 7 days.\nAlkaline Degradation: 20 mg of sample was weighed and placed in a 50 mL volumetric flask. 2 mL of 0.05 mol/L NaOH was added to the flask. The flask was stored at room temperature for 24 hours.\nOxidation: 20 mg of sample was weighed and placed in a 50 mL volumetric flask. 2 mL of 10% H2O2 was added to the flask. The flask was placed in a water bath at 40° C. for 44 hours.\nThermal Degradation (solution, 80° C.): 20 mg of sample was weighed and dissolved in a 50 mL volumetric flask, diluted to the required volume with diluents, and mixed well. The flask was placed in a water bath at 80° C. for 46 hours.\nThermal Degradation (solid, 80° C.): 120 mg of sample was placed in an oven at 80° C. for 7 days.\nThe appearance and purity of the samples were test."}, "[3]": {"conditions": "20 mg in 20 mL water, 25° C.", "description": "The tests were conducted using Sartorius balances (Model SQP) and a pH meter (Brand: INESA, Model No. PHS-3E). 20 mg of the sample was weighed and transferred into a 20 mL volumetric flask with the remainder of the volume comprising water. The solution was mixed. The pH meter was calibrated with pH 4.0 and pH 6.8 standard buffer solutions at 25° C."}, "[4]": {"conditions": "Acid Degradation: 2.0 mol/L HCl, 40° C., 7 days"}, "[5]": {"conditions": "Alkaline Degradation: 0.05 mol/L NaOH, room temperature, 24 hours"}, "[6]": {"conditions": "Oxidation: 10% H2O2, 40° C., 44 hours"}, "[7]": {"conditions": "Thermal Degradation (solid): 80° C., 7 days"}, "[8]": {"conditions": "Thermal Degradation (solution): 80° C., 46 hours"}},
  "note": "Where two headings read alike, the source gives them in different places.",
  "data": [
    {"molecule": "CNC[C@H](O)c1ccc(O)c(O)c1", "note": "[epinephrine malonate]", "values": [
      {"measurement": "Appearance", "setting": "[1]; 30° C., month 0", "value": "Off-white"},
      {"measurement": "DSC Offset", "setting": "[1]; 30° C., month 0", "value": "Offset: 104.25 °C"},
      {"measurement": "DSC Onset", "setting": "[1]; 30° C., month 0", "value": "Onset: 98.8 °C"},
      {"measurement": "Purity", "setting": "[1]; 30° C., month 0", "value": 99.96, "unit": "%"},
      {"measurement": "TGA", "setting": "[1]; 30° C., month 0", "value": 0.32, "unit": "%"},
      {"measurement": "Appearance", "setting": "[1]; 30° C., month 1", "value": "Off-white"},
      {"measurement": "DSC Offset", "setting": "[1]; 30° C., month 1", "value": "Offset: 103.99 °C"},
      {"measurement": "DSC Onset", "setting": "[1]; 30° C., month 1", "value": "Onset: 98.80 °C"},
      {"measurement": "Purity", "setting": "[1]; 30° C., month 1", "value": 99.96, "unit": "%"},
      {"measurement": "Residual Material (%)", "setting": "[1]; 30° C., month 1", "value": 100.31, "unit": "%"},
      {"measurement": "TGA", "setting": "[1]; 30° C., month 1", "value": 0.60, "unit": "%"},
      {"measurement": "Appearance", "setting": "[1]; 30° C., month 2", "value": "Off-white"},
      {"measurement": "DSC Offset", "setting": "[1]; 30° C., month 2", "value": "Offset: 104.47 °C"},
      {"measurement": "DSC Onset", "setting": "[1]; 30° C., month 2", "value": "Onset: 99.27 °C"},
      {"measurement": "Purity", "setting": "[1]; 30° C., month 2", "value": 99.96, "unit": "%"},
      {"measurement": "Residual Material (%)", "setting": "[1]; 30° C., month 2", "value": 99.42, "unit": "%"},
      {"measurement": "TGA", "setting": "[1]; 30° C., month 2", "value": 0.19, "unit": "%"},
      {"measurement": "Appearance", "setting": "[1]; 30° C., month 3", "value": "Off-white"},
      {"measurement": "DSC Offset", "setting": "[1]; 30° C., month 3", "value": "Offset: 104.23 °C"},
      {"measurement": "DSC Onset", "setting": "[1]; 30° C., month 3", "value": "Onset: 98.72 °C"},
      {"measurement": "Purity", "setting": "[1]; 30° C., month 3", "value": 99.96, "unit": "%"},
      {"measurement": "Residual Material (%)", "setting": "[1]; 30° C., month 3", "value": 99.44, "unit": "%"},
      {"measurement": "TGA", "setting": "[1]; 30° C., month 3", "value": 0.90, "unit": "%"},
      {"measurement": "Appearance", "setting": "[1]; 30° C., month 4", "value": "Off-white"},
      {"measurement": "DSC Offset", "setting": "[1]; 30° C., month 4", "value": "Offset: 103.62 °C"},
      {"measurement": "DSC Onset", "setting": "[1]; 30° C., month 4", "value": "Onset: 99.12 °C"},
      {"measurement": "Purity", "setting": "[1]; 30° C., month 4", "value": 99.73, "unit": "%"},
      {"measurement": "Residual Material (%)", "setting": "[1]; 30° C., month 4", "value": 99.31, "unit": "%"},
      {"measurement": "TGA", "setting": "[1]; 30° C., month 4", "value": 0.69, "unit": "%"},
      {"measurement": "Appearance", "setting": "[1]; 30° C., month 5", "value": "Off-white"},
      {"measurement": "DSC Offset", "setting": "[1]; 30° C., month 5", "value": "Offset: 103.92 °C"},
      {"measurement": "DSC Onset", "setting": "[1]; 30° C., month 5", "value": "Onset: 98.71 °C"},
      {"measurement": "Purity", "setting": "[1]; 30° C., month 5", "value": 99.96, "unit": "%"},
      {"measurement": "Residual Material (%)", "setting": "[1]; 30° C., month 5", "value": 100.22, "unit": "%"},
      {"measurement": "TGA", "setting": "[1]; 30° C., month 5", "value": 0.51, "unit": "%"},
      {"measurement": "Appearance", "setting": "[1]; 40° C., month 0", "value": "Off-white"},
      {"measurement": "DSC Offset", "setting": "[1]; 40° C., month 0", "value": "Offset: 104.25 °C"},
      {"measurement": "DSC Onset", "setting": "[1]; 40° C., month 0", "value": "Onset: 98.8 °C"},
      {"measurement": "Purity", "setting": "[1]; 40° C., month 0", "value": 99.96, "unit": "%"},
      {"measurement": "TGA", "setting": "[1]; 40° C., month 0", "value": 0.32, "unit": "%"},
      {"measurement": "Appearance", "setting": "[1]; 40° C., month 1", "value": "Off-white"},
      {"measurement": "DSC Offset", "setting": "[1]; 40° C., month 1", "value": "Offset: 104.41 °C"},
      {"measurement": "DSC Onset", "setting": "[1]; 40° C., month 1", "value": "Onset: 98.89 °C"},
      {"measurement": "Purity", "setting": "[1]; 40° C., month 1", "value": 99.97, "unit": "%"},
      {"measurement": "Residual Material (%)", "setting": "[1]; 40° C., month 1", "value": 99.59, "unit": "%"},
      {"measurement": "TGA", "setting": "[1]; 40° C., month 1", "value": 0.16, "unit": "%"},
      {"measurement": "Appearance", "setting": "[1]; 40° C., month 2", "value": "Off-white"},
      {"measurement": "DSC Offset", "setting": "[1]; 40° C., month 2", "value": "Offset: 104.05 °C"},
      {"measurement": "DSC Onset", "setting": "[1]; 40° C., month 2", "value": "Onset: 98.78 °C"},
      {"measurement": "Purity", "setting": "[1]; 40° C., month 2", "value": 99.96, "unit": "%"},
      {"measurement": "Residual Material (%)", "setting": "[1]; 40° C., month 2", "value": 100.11, "unit": "%"},
      {"measurement": "TGA", "setting": "[1]; 40° C., month 2", "value": 0.13, "unit": "%"},
      {"measurement": "Appearance", "setting": "[1]; 40° C., month 3", "value": "Off-white"},
      {"measurement": "DSC Offset", "setting": "[1]; 40° C., month 3", "value": "Offset: 103.33 °C"},
      {"measurement": "DSC Onset", "setting": "[1]; 40° C., month 3", "value": "Onset: 98.69 °C"},
      {"measurement": "Purity", "setting": "[1]; 40° C., month 3", "value": 99.96, "unit": "%"},
      {"measurement": "Residual Material (%)", "setting": "[1]; 40° C., month 3", "value": 98.97, "unit": "%"},
      {"measurement": "TGA", "setting": "[1]; 40° C., month 3", "value": 0.51, "unit": "%"},
      {"measurement": "Appearance", "setting": "[1]; 40° C., month 5", "value": "Off-white"},
      {"measurement": "DSC Offset", "setting": "[1]; 40° C., month 5", "value": "Offset: 103.83 °C"},
      {"measurement": "DSC Onset", "setting": "[1]; 40° C., month 5", "value": "Onset: 98.49 °C"},
      {"measurement": "Purity", "setting": "[1]; 40° C., month 5", "value": 99.96, "unit": "%"},
      {"measurement": "Residual Material (%)", "setting": "[1]; 40° C., month 5", "value": 99.68, "unit": "%"},
      {"measurement": "TGA", "setting": "[1]; 40° C., month 5", "value": 0.46, "unit": "%"},
      {"measurement": "Appearance", "setting": "[2]; [4]", "value": "Colorless liquid"},
      {"measurement": "Purity", "setting": "[2]; [4]", "value": 91.96, "unit": "%"},
      {"measurement": "Appearance", "setting": "[2]; [5]", "value": "Brown liquid"},
      {"measurement": "Purity", "setting": "[2]; [5]", "value": 98.68, "unit": "%"},
      {"measurement": "Appearance", "setting": "[2]; [6]", "value": "Colorless liquid"},
      {"measurement": "Purity", "setting": "[2]; [6]", "value": 97.04, "unit": "%"},
      {"measurement": "Appearance", "setting": "[2]; Standard (no degradation)", "value": "Off-white powder"},
      {"measurement": "Purity", "setting": "[2]; Standard (no degradation)", "value": 99.89, "unit": "%"},
      {"measurement": "Appearance", "setting": "[2]; [7]", "value": "Off-white powder"},
      {"measurement": "Purity", "setting": "[2]; [7]", "value": 99.10, "unit": "%"},
      {"measurement": "Appearance", "setting": "[2]; [8]", "value": "Colorless liquid"},
      {"measurement": "Purity", "setting": "[2]; [8]", "value": 96.04, "unit": "%"}
    ]},
    {"molecule": "epinephrine maleate", "values": [
      {"measurement": "pH", "setting": "[3]", "value": 4.48}
    ]}
  ]
}
